From patent US8481551B2, “Gyrase and topoisomerase IV inhibitors” (Vertex Pharmaceuticals Incorporated, priority 2011, dated 2013)
Structures can show the parent of a compound that is named as a salt.

Columns and labels:
[1] = test system: Stenotrophomonas maltophilia; assay: Gyrase MIC against Gram negatives, microdilution broth method (Protocol 2); format: cell-based
Enterobacter cloacae = assay: as above; format: cell-based; conditions: 12 isolates tested
Prevotella spp. = assay: Gyrase MIC, agar dilution method (Protocol 3); format: cell-based; conditions: 13 isolates tested
Moraxella catarrhalis = assay: Gyrase MIC against Gram negatives, microdilution broth method (Protocol 2); format: cell-based
M. kansasii = assay: MIC determination procedure for Mycobacterium species (Protocol 4); format: cell-based
Nocardia caviae = assay: as above; format: cell-based; conditions: Nocardia otitidiscaviarum
N. nova = assay: as above; format: cell-based; conditions: N. nova 10
Fusobacterium spp. = assay: Gyrase MIC, agar dilution method (Protocol 3); format: cell-based; conditions: 16 isolates tested
Mycobacterium avium = assay: MIC determination procedure for Mycobacterium species (Protocol 4); format: cell-based
Proteus mirabilis = assay: Gyrase MIC against Gram negatives, microdilution broth method (Protocol 2); format: cell-based; conditions: 12 isolates tested
S. aureus (ATCC 29213) = assay: Neutropenic rat thigh infection model; format: in vivo, Sprague Dawley rats
Source text: Animals: Specific-pathogen-free, male Sprague Dawley rats weighing between 76 to 100 grams were obtained from Charles River Laboratories, Inc. (Wilmington, Mass.) and utilized in this experiment. Animals were allowed to acclimate for a minimum of seven (7) days before study commencement. Bacteria: The methicillin-sensitive Staphylococcus aureus(MSSA) ATCC strain 29213 was utilized for in vivo experimentation. The test isolate was subcultured twice onto standard microbiological agar media (trypticase soy agar with 5% sheep blood). The second transfer was made less than 24 hours before use in the preparation of the thigh infection model inoculum. Neutropenic Rat Thigh Infection Model: To induce neutropenia, rats were treated with the immunosuppressant cyclophosphamide at 150 mg/kg, administered in 1 ml by intraperitoneal (IP) injection, three day prior to infection. Rats were infected by an intramuscular (IM) 0.2 ml injection into both rear thighs with a 10^7 cfu/ml methicillin-sensitive Staphylococcus aureus 29213 suspension in normal saline. After increasing amounts of time (2-26 hours) the two rear thighs of each animal were harvested, rinsed with sterile saline, weighed, then placed in 50 ml sterile normal saline and placed on wet ice until homogenization. Approximately one-half of the total homogenized sample volume was passed through a large pore filter (to remove cartilage and large clumped pieces of tissue), diluted in saline and cultured onto agar media plates (trypticase soy agar with 5% sheep blood). All culture plates were incubated at approximately 37° C. for 18-24 hours. Colony-forming units were enumerated (in cfu/ml of homogenate) and the median for each treatment and control group was calculated. […] The median cfu/ml per group was compared to the initial bacterial density at 2 hours (Early Control) or that of the time-matched vehicle control group (Late Control; LC) group harvested simultaneously. […] After 2 hours a single group of rats (Early Control (EC) was euthanized and the thighs harvested, homogenized and plated to quantitate S. aureus burdens. The additional infected rats were treated by oral gavage with Vehicle at 10 ml/kg (20% Cavitron/1% HPMCAS-MG; […] The 8-hour treatment groups received a single treatment (QD) and were euthanized and thighs collected for cfu determination 8 hours post treatment (QD), while the 24-hour treatment groups received 2 doses 12 hours apart (q12 h) and were euthanized and thighs collected 24 hours post treatment. […] After 2 hours a single group of rats (Early Control (EC)) was euthanized and the thighs harvested, homogenized and plated to quantitate S. aureus burdens. The additional infected rats were treated by oral gavage with Vehicle at 10 ml/kg (10% Vitamin E/TPGS; […] The 8-hour treatment groups received a single treatment (QD) and were euthanized and thighs collected for cfu determination 8 hours post treatment (QD), while the 24 hour treatment groups received 2 doses 12 hours apart (q12 h) and were euthanized and thighs collected 24 hours post treatment.

Enterococcus faecium = assay: Gyrase MIC, microdilution broth method (Protocol 1)
[2] = Pharmacokinetics, monkey IV study; conditions: male, cynomolgus monkey, plasma, 5 mg/kg, Compound W dosed IV 5 mg/kg in D5W, label = analyte
[3] = Pharmacokinetics, rat IV study; conditions: male Sprague Dawley rats, plasma, analyte as labelled; for AUC: male, Sprague Dawley, rat, iv
Enterococcus faecalis = assay: Gyrase MIC, microdilution broth method (Protocol 1); conditions: ATCC29212
[4] = Moraxella catarrhalis, 26 isolates tested
[5] = 8 hours after the first dose, 10 mg/kg oral
[6] = Table 8: 10 mg/kg oral, QD, 8 Hours
[7] = Table 8: 10 mg/kg oral, q12 h, 24 Hours
[8] = Table 8: 30 mg/kg oral, QD, 8 Hours
[9] = Table 8: 30 mg/kg oral, q12 h, 24 Hours
[10] = Table 8: 60 mg/kg oral, QD, 8 Hours
[11] = Table 8: 60 mg/kg oral, q12 h, 24 Hours
[12] = Compound W 1 mg/kg single IV bolus in D5W
[13] = Compound W 5 mg/kg single IV bolus in D5W
[14] = 1 mg/kg, AUC, Compound W 1 mg/kg single IV bolus in D5W
[15] = 1 mg/kg, AUCextrap, Compound W 1 mg/kg single IV bolus in D5W
[16] = 5 mg/kg, AUC, Compound W 5 mg/kg single IV bolus in D5W
[17] = 5 mg/kg, AUCextrap, Compound W 5 mg/kg single IV bolus in D5W

For `CCNC(=O)Nc1nc2cc(-c3cnc(C(C)(C)O)nc3)c(F)c([C@H]3CCCO3)c2[nH]1` [Compound 23A, methanesulfonic acid salt of 1-ethyl-3-[6-fluoro-5-[2-(1-hydroxy-1-methyl-ethyl)pyrimidin-5-yl]-7-[(2R)-tetrahydrofuran-2-yl]-1H-benzimidazol-2-yl]urea], the MIC ([1]; ATCCBAA84, Stenotrophomonas maltophilia ATCC BAA-84) was > 8 µg/mL, the MIC ([1]; Stenotrophomonas maltophilia ATCC13637) was > 8 µg/mL and the MIC90 (Enterobacter cloacae) was > 8 µg/mL. The MIC90 (Prevotella spp.) was 16 µg/mL, the “MIC Range” value (Prevotella spp.) was 0.06 to 16 µg/mL and the MIC (Moraxella catarrhalis; ATCC25238, Moraxella catarrhalis ATCC 25238) was ≤ 0.016 µg/mL. The MIC (Moraxella catarrhalis; ATCC49143, Moraxella catarrhalis ATCC 49143) was ≤ 0.016 µg/mL, the MIC90 (Moraxella catarrhalis; [4]) was 0.03 µg/mL and the “MIC Range” value (Moraxella catarrhalis; [4]) was “≦0.004-0.03^ μg/ml”. For the same compound, the MIC (M. kansasii; M. kansasii 303) was 0.03 µg/mL, the MIC (M. kansasii; M. kansasii 379) was < 0.015 µg/mL and the MIC (Nocardia caviae) was 0.125 µg/mL. The MIC (N. nova) was 1 µg/mL, the MIC90 (Fusobacterium spp.) was > 16 µg/mL and the MIC (Mycobacterium avium; M. avium 3404.4) was 0.23 µg/mL. For the same compound, the MIC (Mycobacterium avium; M. avium Far) was 0.23 µg/mL, the MIC (Mycobacterium avium; Mycobacterium avium 103) was 0.18 µg/mL and the MIC90 (Proteus mirabilis) was > 8 µg/mL. The “bacterial growth compared to early control” value (S. aureus (ATCC 29213); [5]) was “held the bacterial growth of SA 29213 to at least the point of stasis”, the “log reduction in burdens compared to time-matched control” value (S. aureus (ATCC 29213); [5]) was ~1.3 log and the “log reduction in burdens compared to time-matched control” value (S. aureus (ATCC 29213); 8 hours after the first dose, 30 and 60 mg/kg oral) was ~2 log. The “decrease of bacterial burden compared to early control” value (S. aureus (ATCC 29213); 8 hours after the first dose, 60 and 100 mg/kg (so in the source)) was 0.5-0.6 logs, the “log reduction compared to early control” value (S. aureus (ATCC 29213); 24 hours, second dose at 12 hours, 10 mg/kg) was “approximately 0.8 log” and the “log reductions compared to early control” value (S. aureus (ATCC 29213); 24 hours, second dose at 12 hours, 30 and 60 mg/kg) was 1.1-1.2 log. The “decrease in bacterial density compared to late control” value (S. aureus (ATCC 29213); 24 hours, second dose at 12 hours, all treatment groups (10, 30, 60 mg/kg)) was 2.4-2.8 logs, the “Median Thigh Burden (Log cfu/mL)” value (S. aureus (ATCC 29213); Table 8: 10 mg/kg oral gavage, single treatment (QD), 8 Hours) was 5.42 Log cfu/mL and the “Median Thigh Burden (Log cfu/mL)” value (S. aureus (ATCC 29213); Table 8: 10 mg/kg oral, 2 doses 12 hours apart (q12 h), 24 Hours) was 4.59 Log cfu/mL. For the same compound, the “Log Difference vs. Early Control” value (S. aureus (ATCC 29213); [6]) was 0.05, the “Log Reduction vs. Late Control (8-hour)” value (S. aureus (ATCC 29213); [6]) was −1.36 and the “Log Difference vs. Early Control” value (S. aureus (ATCC 29213); [7]) was −0.78. For the same compound, the “Log Difference vs. Late Control (24-hour)” value (S. aureus (ATCC 29213); [7]) was −2.40, the “Log Difference vs. Early Control” value (S. aureus (ATCC 29213); [8]) was −0.62 and the “Log Reduction vs. Late Control (8-hour)” value (S. aureus (ATCC 29213); [8]) was −2.02. The “Median Thigh Burden (Log cfu/mL)” value (S. aureus (ATCC 29213); [8]) was 4.75 Log cfu/mL, the “Log Difference vs. Early Control” value (S. aureus (ATCC 29213); [9]) was −1.06 and the “Log Difference vs. Late Control (24-hour)” value (S. aureus (ATCC 29213); [9]) was −2.68. For the same compound, the “Median Thigh Burden (Log cfu/mL)” value (S. aureus (ATCC 29213); [9]) was 4.31 Log cfu/mL, the “Log Difference vs. Early Control” value (S. aureus (ATCC 29213); [10]) was −0.57 and the “Log Reduction vs. Late Control (8-hour)” value (S. aureus (ATCC 29213); [10]) was −1.97. For the same compound, the “Median Thigh Burden (Log cfu/mL)” value (S. aureus (ATCC 29213); [10]) was 4.80 Log cfu/mL, the “Log Difference vs. Early Control” value (S. aureus (ATCC 29213); [11]) was −1.18 and the “Log Difference vs. Late Control (24-hour)” value (S. aureus (ATCC 29213); [11]) was −2.80. For the same compound, the “Median Thigh Burden (Log cfu/mL)” value (S. aureus (ATCC 29213); [11]) was 4.19 Log cfu/mL, the MIC90 (Enterococcus faecium) was 0.12 µg/mL and the “MIC Range” value (Enterococcus faecium; 33 isolates tested, Protocol 1) was 0.003 to 0.25 µg/mL. It also gave an MIC (Enterococcus faecium; ATCC49624, Enterococcus faecium ATCC 49624, Protocol 1) of 0.11 µg/mL and an MIC (Enterococcus faecium; ATCC49624, Enterococcus faecium ATCC 49624 with Laked Horse Blood, Protocol 1) of 0.11 µg/mL.
`CCNC(=O)Nc1nc2cc(-c3cnc(C(C)(C)O)nc3)c(F)c([C@H]3CCCO3)c2[nH]1` [Compound 23, 1-ethyl-3-[6-fluoro-5-[2-(1-hydroxy-1-methyl-ethyl)pyrimidin-5-yl]-7-[(2R)-tetrahydrofuran-2-yl]-1H-benzimidazol-2-yl]urea] showed an AUC ([2]; AUCextrap) of 3810 ng·h/mL, a Cl_obs [3, 12] of 54.9 mL/min/kg and a Vss_obs [3, 12] of 3.8 L/kg. For the same compound, the Cl_obs [3, 13] was 27.3 mL/min/kg, the Vss_obs [3, 13] was 4.08 L/kg and the AUC [3, 14] was 306 ng·h/mL. The AUC [3, 15] was 310 ng·h/mL, the AUC [3, 16] was 3040 ng·h/mL and the AUC [3, 17] was 3060 ng·h/mL.
`CCNC(=O)Nc1nc2cc(-c3cnc(C(C)(C)OP(=O)([O-])[O-])nc3)c(F)c([C@H]3CCCO3)c2[nH]1.[Na+].[Na+]` [Compound W, disodium (R)-2-(5-(2-(3-ethylureido)-6-fluoro-7-(tetrahydrofuran-2-yl)-1H-benzo[d]imidazol-5-yl)pyrimidin-2-yl)propan-2-yl phosphate] showed an AUC ([2]; AUC) of 5790 ng·h/mL, an AUC ([2]; AUCextrap) of 5830 ng·h/mL and an MIC (Enterococcus faecalis) of 1 µg/mL. For the same compound, the Cl_obs [3, 12] was 46.7 mL/min/kg, the Vss_obs [3, 12] was 0.38 L/kg and the Cl_obs [3, 13] was 84.6 mL/min/kg. The Vss_obs [3, 13] was 5.8 L/kg, the AUC [3, 14] was 416 ng·h/mL and the AUC [3, 15] was 419 ng·h/mL. For the same compound, the AUC [3, 16] was 1110 ng·h/mL and the AUC [3, 17] was 1120 ng·h/mL.
